From PubChem BioAssay AID1340 (NMMLSC, 2008)

biological target: Ras-related C3 botulinum toxin substrate 1 (Homo sapiens) (UniProt P63000); experiment: wildtype Rac1 GTP binding inhibitors, dose response, biochemical, multiplex bead flow cytometry (AID 1340); settings: GST-Rac1 beads, Bodipy-FL-GTP binding

SMILES | EC50
COc1ccc(C(=O)/C=C/Nc2ccc(S(=O)(=O)Nc3nc(C)cc(C)n3)cc2)cc1OC | 3.12 µM
COc1cc(/C=N/Nc2nnc3c(n2)[nH]c2ccccc23)ccc1O | 0.634 µM
NC(=S)N=Nc1c(O)[nH]c2ccc(F)cc12 | 3.46 µM
